Measured values taken from patent publication US12616753B2, “HSP70 inhibitors and methods of using same” (THE WISTAR INSTITUTE, priority 2020, dated 2026).

Tests used:
[1] = system: IMR90 and CCD 841 CoN cells; experiment: Seahorse XF Cell Mito Stress Test, normal cells; format: cell-based, human; conditions: 500 nM (sublethal), 24 hours
Procedure: FIG. 2A: IMR90 cells (non-transformed fibroblasts), 1205Lu (melanoma), and HT-29 (CRC) cancer cells were treated with sub-lethal doses (500 nM) of the HSP70 inhibitors PET-16 (positive control) or AP-4-139B for 24 hours. Cells were then subjected to the Seahorse Mito Stress Test Assay. Injections were Oligomycin (1 μM, line A), FCPP (0.5-1 μM, line B), and Rotenone/Antimycin A (1 μM, line C). Each graphical representation indicates the mean±standard deviation of a minimum of 5 technical replicates. […] Each experiment was performed in triplicate and independently repeated twice. FIGS. 2B-2D: Basal Oxygen Consumption Rate (ORC) (FIG. 2B), Maximal OCR (FIG. 2C), and ATP production (FIG. 2D) were analyzed in IMR90 fibroblasts, non-transformed colonic epithelial cells (CCD 841 CoN), 1205Lu melanoma cells and HT-29 CRC cells, in the presence or absence of 500 nM HSP70 inhibitors or negative control (VY-3-277). All experiments were performed in triplicate, with each group containing 5-6 technical replicates. ** p<0.01, *** p<0.001, n.s. not significant.
The XF Cell Mito Stress Test was performed. […] For extracellular ATP release, ATP was measured using the CellTiter-Glo Kit (Promega catalog #G7570). […] 10 μl of CellTiter-Glo Reaction Mix was then mixed with 10 μl of culture media; the luminescence signal was detected using a luminometer.

[2] = system: CRC cell lines (HT-29, LS411N, and SW620); experiment: Trypan Blue exclusion viability assay, CRC cell lines; format: cell-based, human; conditions: 10 μM, 48 hours
Procedure: FIGS. 4A-4F show AP-4-139B is efficacious as a single agent against human CRC in vitro and in vivo. FIG. 4A: Three CRC cell lines (HT-29, LS411N, and SW620) were treated with 10 μM of PET-16 or AP-4-139B for 48 hours. Cell were then subjected to viability assays using Trypan Blue exclusion. *** p<0.001. […] FIGS. 4B-4C: A panel of six CRC cell lines (SW620, HT-29, HCT 116+/−p53, RKO, and LS411N) were plated at a density of 1,000 cells per well in 96-well plates. The next day, cells were treated with the indicated inhibitors for 72 hours. Cells were then subjected to the Alamar Blue cell viability assays. Shown are representative IC50 values of an average of six technical replicates and two biological replicates. FIG. 4D: 2.5×10^6 HT-29 cells were injected subcutaneously into the right flank of NSG mice. Once tumors reached an approximate volume of 100 mm^3, mice were separated randomly into two groups: control vs. AP-4-139B. Mice were treated with 12.5 mg/kg AP-4-139B three times a week. All mice were euthanized 22 days after the start of treatment. Tumor volumes were recorded using digital calipers and using the formula v=length×width^2×0.52. *** p<0.001. n=10 mice per group. FIG. 4E: Immunohistochemistry (IHC) analysis of HT-29 xenograft tumors treated with AP-4-139B. […]

HT-29 tumor xenografts = experiment: HT-29 tumor xenograft in NSG mice; format: in vivo; conditions: 12.5 mg/kg three times per week
Procedure: FIGS. 4A-4F show AP-4-139B is efficacious as a single agent against human CRC in vitro and in vivo. FIG. 4A: Three CRC cell lines (HT-29, LS411N, and SW620) were treated with 10 μM of PET-16 or AP-4-139B for 48 hours. Cell were then subjected to viability assays using Trypan Blue exclusion. *** p<0.001. […] FIGS. 4B-4C: A panel of six CRC cell lines (SW620, HT-29, HCT 116+/−p53, RKO, and LS411N) were plated at a density of 1,000 cells per well in 96-well plates. The next day, cells were treated with the indicated inhibitors for 72 hours. Cells were then subjected to the Alamar Blue cell viability assays. Shown are representative IC50 values of an average of six technical replicates and two biological replicates. FIG. 4D: 2.5×10^6 HT-29 cells were injected subcutaneously into the right flank of NSG mice. Once tumors reached an approximate volume of 100 mm^3, mice were separated randomly into two groups: control vs. AP-4-139B. Mice were treated with 12.5 mg/kg AP-4-139B three times a week. All mice were euthanized 22 days after the start of treatment. Tumor volumes were recorded using digital calipers and using the formula v=length×width^2×0.52. *** p<0.001. n=10 mice per group. FIG. 4E: Immunohistochemistry (IHC) analysis of HT-29 xenograft tumors treated with AP-4-139B. Shown are representative images (4-6 random fields of view per condition) of Ki67 (proliferation) and Cleaved Lamin A (cell death). n=4 mice per group. Scale bar=100 μm. Respective IgG antibody was used as the negative control.
(§1) FIGS. 8A-8E show HSP70 inhibition is effective on mouse CRC cell lines. FIG. 8A: Association of HSPA1A gene expression and survival rate of patients with colorectal adenocarcinoma (COAD). Patient data was gathered from USCS Xena platform (GDC-TCGA COAD; n=435). Log-rank test was used to determine significance. p=0.0004. FIG. 8B: Association of HSPA1A gene expression and stage of COAD (n=440). Wilcoxon rank sum test was used to determine significance. * p<0.05, *** p<0.001. FIG. 8C: Body weights of mice injected with HT-29 tumor xenografts. Weights were measured at the start of the treatment to determine mouse toxicity. n.s. not significant, n=10 mice per group. FIG. 8D: H&E staining of livers and colons of mice injected with HT-29 tumor xenografts. Tissues were collected at the end of the study. FIG. 8E. Pharmacokinetic values of AP-4-139B in the liver, plasma, and brain from three CDI mice treated with 10 mg/kg of compound.
Shown are representative images of COXIV and a-SMA. n=5 mice per group. Scale bar=100 μm.
All studies were carried out in accordance with the recommendations in the Guide for the Care and Use of Laboratory Animals of the National Institutes of Health (NIH). All protocols were approved by The Wistar Institute Institutional Animal Care and Use Committee (IACUC). Mice were housed in plastic cages with ad libitum diet and maintained with a 12-hour dark/12-hour light cycle at 22° C. For human xenograft studies, 2.5×10^6 HT-29 cells were injected subcutaneously into the right flanks of 6-8 week old male NSG (NOD.Cg-Prkdcscid II2rgtm1 Wjl/SzJ) mice. For mouse xenograft studies, 1×10^6 MC38 cells were subcutaneously into the right flanks of 6-8 week old male C57Bl/6J mice. Tumor volumes were measured using digital calipers and tumor volume was calculated using the formula: volume=(length×width^2)×0.52. All mice were monitored daily for signs of pain or distress.

Pharmacokinetics in mice = format: in vivo; conditions: 10 mg/kg
Source text: as §1

Compound	mitochondrial function in normal cells [1]	decrease of CRC cell viability [2]	Ki-67 staining in tumors (HT-29 tumor xenografts)	cleaved lamin A staining in tumors (apoptosis) (HT-29 tumor xenografts)	loss of mitochondria in treated tumors (COX IV staining) (HT-29 tumor xenografts)	progression of HT-29 tumor xenografts (HT-29 tumor xenografts)	toxicity (weight loss, liver or colon architecture) (HT-29 tumor xenografts)	brain penetrance (Pharmacokinetics in mice)	half-life in plasma (Pharmacokinetics in mice)	half-life (Pharmacokinetics in mice; CDI, mouse, plasma) [min]
c1ccc(-c2cn3nc(CCCCCC[P+](c4ccccc4)(c4ccccc4)c4ccccc4)sc3n2)cc1 [AP-4-139B, Triphenyl(6-(6-phenylimidazo[2,1-b][1,3,4]thiadiazol-2-yl)hexyl)phosphonium bromide]	largely unaffected	markedly more cytotoxic	reduced staining for Ki-67	increased staining for cleaved lamin A	No evidence was found that AP-4-139B caused obvious loss of mitochondria	significantly reduced the progression of HT-29 tumor xenografts	No evidence for toxicity	modest brain penetrance	> five	> 300
C(#C[P+](c1ccccc1)(c1ccccc1)c1ccccc1)c1ccccc1 [PET-16, Triphenyl(phenylethynyl)phosphonium bromide, reference compound]	largely unaffected	modest ability to decrease CRC cell viability	–	–	–	–	–	–	–	–
